pIC50: −log10 of the molar value.

In the test the target is T1, human recombinant renin (Homo sapiens, UniProt P00797).
T1 sequence (P00797 67-406): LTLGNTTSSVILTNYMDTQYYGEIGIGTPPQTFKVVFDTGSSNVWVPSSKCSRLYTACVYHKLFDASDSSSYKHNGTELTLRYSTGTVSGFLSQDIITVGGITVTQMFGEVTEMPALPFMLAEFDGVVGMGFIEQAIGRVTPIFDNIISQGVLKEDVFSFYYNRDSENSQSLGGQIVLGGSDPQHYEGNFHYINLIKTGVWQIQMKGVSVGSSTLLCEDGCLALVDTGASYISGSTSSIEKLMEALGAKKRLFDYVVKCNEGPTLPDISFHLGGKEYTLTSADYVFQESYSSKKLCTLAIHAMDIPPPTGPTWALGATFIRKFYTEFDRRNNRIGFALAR
Put plainly: Inhibition of human recombinant renin (enzymatic in vitro assay, Ang I detected by EIA). The test is classed as biochemical. The settings on record: human recombinant renin 0.16 ng/mL, synthetic human angiotensin(1-14) 0.5 μM, 37° C. for 3 h. How it is done: Inhibition of Human Recombinant Renin by the Compounds of the Invention The enzymatic in vitro assay was performed in 384-well polypropylene plates (Nunc). The assay buffer consisted of 10 mM PBS (Gibco BRL) including 1 mM EDTA and 0.1% BSA. The incubates were composed of 50 μL per well of an enzyme mix and 2.5 μL of renin inhibitors in DMSO. The enzyme mix was premixed at 4° C. and consists of the following components: • human recombinant renin (0.16 ng/mL) * synthetic human angiotensin(1-14) (0.5 μM) • hydroxyquinoline sulfate (1 mM) The mixtures were then incubated at 37° C. for 3 h. To determine the enzymatic activity and its inhibition, the accumulated Ang I was detected by an enzyme immunoassay (EIA) in 384-well plates (Nunc). 5 μL of the incubates or standards were transferred to immuno plates which were previously coated with a covalent complex of Ang I and bovine serum albumin (Ang I—BSA). 75 μL of Ang I-antibodies in essaybuffer above including 0.01% Tween 20 were added and a primary incubation made at 4° C. overnight. The plates were washed 3 times with PBS including 0.01% Tween 20, and then incubated for 2 h at rt with an antirabbit-peroxidase coupled antibody (WA 934, Amersham).
For the molecule `Cc1cc(Cl)c(OCCOc2ccc(C3=C(C(=O)N(Cc4ccnc(OCCO)c4C)C4CC4)[C@H]4CNC[C@@H](C3)N4)cc2)c(Cl)c1` (racemic) [Example 4, (rac.)-(1R*, 5S*)-7-{4-[2-(2,6-Dichloro-4-methylphenoxy)ethoxy]phenyl}-3,9-diazabicyclo[3.3.1]non-6-ene-6-carboxylic Acid Cyclopropyl-[2-(2-hydroxy-ethoxy)-3-methylpyridin-4-ylmethyl]amide], the pIC50 is 8.84.
Under `Cc1c(CN(C(=O)C2=C(c3ccc(CCCOc4c(F)ccc(F)c4Cl)cc3)C[C@@H]3CNC[C@H]2N3)C2CC2)ccnc1OCCO` (racemic) [Example 3, (rac.)-(1R*, 5S*)-7-{4-[3-(2-Chloro-3,6-difluorophenoxy)propyl]phenyl}-3,9-diazabicyclo[3.3.1]non-6-ene-6-carboxylic Acid Cyclopropyl-[2-(2-hydroxy-ethoxy)-3-methylpyridin-4-ylmethyl]amide] stands 9.09; under `Cc1cc(Cl)c(OCCOc2ccc(C3=C(C(=O)N(Cc4ccnc(OCCCO)c4C)C4CC4)[C@H]4CNC[C@@H](C3)N4)cc2)c(Cl)c1` (racemic) [Example 2, (rac.)-(1R*, 5S*)-7-{4-[2-(2,6-Dichloro-4-methylphenoxy)ethoxy]phenyl}-3,9-diazabicyclo[3.3.1]non-6-ene-6-carboxylic Acid Cyclopropyl-[2-(3-hydroxy-propoxy)-3-methylpyridin-4-ylmethyl]amide], 9.31.
Under `Cc1c(CN(C(=O)C2=C(c3ccc(CCCOc4c(F)ccc(F)c4Cl)cc3)C[C@@H]3CNC[C@H]2N3)C2CC2)ccnc1OCCCO` (racemic) [Example 1, (rac.)-(1R*, 5S*)-7-{4-[3-(2-Chloro-3,6-difluorophenoxy)propyl]phenyl}-3,9-diazabicyclo[3.3.1]non-6-ene-6-carboxylic Acid Cyclopropyl-[2-(3-hydroxy-propoxy)-3-methylpyridin-4-ylmethyl]amide] stands 8.94.

Broadly, the pIC50 is −log10 of the IC50, conventionally taken in molar units.

(Values after patent US20070142363A1, “Novel diazabicyclonene derivatives and use thereof” (ACTELION PHARMACEUTICALS LTD, priority 2003, published 2007).)
